These are literature values, as cited in US20180104231A1, “BENZALKONIUM CHLORIDE FREE OPHTHALMIC COMPOSITION CONTAINING (+)-(S)-4-[4-CHLOROPHENYL) (2-PYRIDYL) METHOXY] PIPERDINO] BUTYRIC ACID OR PHARMACOLOGICALLY ACCEPTABLE ACID ADDITION SALT, THEREOF” (INTERA HEALTHCARE PLC, priority 2016, published 2018).

For data set [1] the following is noted: with the lapse of time.
Data set [2] concerns corneal epithelium and endothelium.

`O=C(O)CCCN1CCC(O[C@@H](c2ccc(Cl)cc2)c2ccccn2)CC1.O=S(=O)(O)c1ccccc1` [bepotastine besilate]: the “Stability to light in an aqueous solution” value in data set [1] is reported as “unstable to light”.

Take benzalkonium chloride [BAC]: the “Effect of BAC exposure on cornea” value in data set [2] (BAC 0.0001%, minimum of 15 min exposure) was “physiological changes (edema) and ultra-structural changes to corneal epithelium and endothelium”. For the same molecule, in data set [2] (clinical concentration (0.005%)), the “Effect of BAC on corneal epithelial cells” value was “cell wrinkling to lifting of corneal epithelial cells”.
